# Measurements taken from US20250302822A1, “COMPOSITION FOR ENHANCING ANTICANCER EFFECT OF MEK INHIBITOR COMPRISING ARIPIPRAZOLE AS ACTIVE INGREDIENT” (KOREA INSTITUTE OF RADIOLOGICAL & MEDICAL SCIENCES, priority 2022, published 2025).
# What was measured:
# NOXA = NOXA protein expression in COLO 205 cells via Western blot; format: cell-based; details: eight hours after treatment, Western blot (FIG. 1)
# Method: (§1) To identify an effect of aripiprazole on the expression of NOXA and PUMA proteins in cancer cells, COLO 205 cells were treated with aripiprazole. Eight hours later, proteins were extracted from cells after washing with PBS, and a level of NOXA and PUMA expression was checked via Western blot.
# PUMA = PUMA protein expression in COLO 205 cells via Western blot; format: cell-based; details: eight hours after treatment, Western blot (FIG. 1)
# Method: as §1
smiles,measurement,setting,value
O=C1CCc2ccc(OCCCCN3CCN(c4cccc(Cl)c4Cl)CC3)cc2N1 [aripiprazole],expression of NOXA protein,NOXA,increased
same,expression of PUMA protein,PUMA,increased
